Measurements: ChEMBL document CHEMBL1142296, “BACE1 inhibitors: optimization by replacing the P1' residue with non-acidic moiety” (Bioorg Med Chem Lett, 2008)

Key:
[1] = target: T1, Beta-secretase 1 (Homo sapiens, UniProt P56817); assay: Inhibition of human recombinant BACE1 at 2 uM
[2] = target: T1, Beta-secretase 1; assay: Inhibition of human recombinant BACE1 at 0.2 uM
[3] = target: T1, Beta-secretase 1; assay: Inhibition of human recombinant BACE1

T1 sequence (P56817 whole entry): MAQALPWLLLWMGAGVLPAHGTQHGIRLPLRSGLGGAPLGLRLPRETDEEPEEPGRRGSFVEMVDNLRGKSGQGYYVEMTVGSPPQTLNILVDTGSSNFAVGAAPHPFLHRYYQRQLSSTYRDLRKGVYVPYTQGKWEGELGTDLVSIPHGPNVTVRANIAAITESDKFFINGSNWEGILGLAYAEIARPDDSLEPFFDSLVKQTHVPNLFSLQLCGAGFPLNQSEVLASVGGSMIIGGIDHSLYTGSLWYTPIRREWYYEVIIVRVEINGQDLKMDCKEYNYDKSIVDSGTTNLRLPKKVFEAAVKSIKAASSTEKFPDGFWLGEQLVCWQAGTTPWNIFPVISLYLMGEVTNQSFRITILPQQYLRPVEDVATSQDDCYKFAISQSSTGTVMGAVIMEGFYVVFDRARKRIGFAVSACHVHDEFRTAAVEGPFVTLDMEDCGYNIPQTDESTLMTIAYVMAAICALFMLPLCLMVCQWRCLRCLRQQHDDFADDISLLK

Row | inhibition [1] [%] | inhibition [2] [%] | SMILES | IC50 [3] [nM]
1 | 71 | – | CC(C)C[C@H](NC(=O)[C@@H](NC(=O)[C@@H](N)CCC(=O)O)C(C)C)C(=O)N[C@@H](Cc1ccccc1)[C@@H](O)C(=O)Nc1cccc([N+](=O)[O-])c1 | –
2 | 92 | 57 | CC(C)C[C@H](NC(=O)[C@@H](NC(=O)[C@@H](N)CNC(=O)c1nn[nH]n1)C(C)C)C(=O)N[C@@H](Cc1ccccc1)[C@@H](O)C(=O)Nc1cc(Br)cc(C(F)(F)F)c1 | –
3 | 86 | – | CC(C)C[C@H](NC(=O)[C@@H](NC(=O)[C@@H](N)CCC(=O)O)C(C)C)C(=O)N[C@@H](Cc1ccccc1)[C@@H](O)C(=O)Nc1cccc(C(=O)NS(=O)(=O)C(F)(F)F)c1 | –
4 | 94 | – | Cc1nc(NC(=O)[C@H](O)[C@H](Cc2ccccc2)NC(=O)[C@H](CC(C)C)NC(=O)[C@@H](NC(=O)[C@@H](N)CCC(=O)O)C(C)C)sc1C(=O)O | –
5 | 93 | 72 | CC(C)C[C@H](NC(=O)[C@@H](NC(=O)[C@@H](N)CNC(=O)c1nn[nH]n1)C(C)C)C(=O)N[C@@H](Cc1ccccc1)[C@@H](O)C(=O)Nc1cccc(OC(F)(F)F)c1 | –
6 | – | – | CC(C)C[C@H](NC(=O)[C@@H](NC(=O)[C@@H](N)CNC(=O)c1nnn[nH]1)C(C)C)C(=O)N[C@@H](Cc1ccccc1)[C@@H](O)C(=O)NS(=O)(=O)C(F)(F)F | 29.9
7 | 74 | – | CC(C)C[C@H](NC(=O)[C@@H](NC(=O)[C@@H](N)CCC(=O)O)C(C)C)C(=O)N[C@@H](Cc1ccccc1)[C@@H](O)C(=O)Nc1cc(C(F)(F)F)cc(C(F)(F)F)c1 | –
8 | 96 | 75 | CC(C)C[C@H](NC(=O)[C@@H](NC(=O)[C@@H](N)CNC(=O)c1nn[nH]n1)C(C)C)C(=O)N[C@@H](Cc1ccccc1)[C@@H](O)C(=O)Nc1cc([N+](=O)[O-])cc([N+](=O)[O-])c1 | –
9 | 66 | – | CCOC(=O)c1sc(NC(=O)[C@H](O)[C@H](Cc2ccccc2)NC(=O)[C@H](CC(C)C)NC(=O)[C@@H](NC(=O)[C@@H](N)CCC(=O)O)C(C)C)nc1C | –
10 | 54 | – | CC(C)C[C@H](NC(=O)[C@@H](NC(=O)[C@@H](N)CCC(=O)O)C(C)C)C(=O)N[C@@H](Cc1ccccc1)[C@@H](O)C(=O)Nc1cccc(O)c1 | –
11 | 53 | – | CC(C)C[C@H](NC(=O)[C@@H](NC(=O)[C@@H](N)CCC(=O)O)C(C)C)C(=O)N[C@@H](Cc1ccccc1)[C@@H](O)C(=O)Nc1ccccc1 | –
12 | 51 | – | CC(C)C[C@H](NC(=O)[C@@H](NC(=O)[C@@H](N)CCC(=O)O)C(C)C)C(=O)N[C@@H](Cc1ccccc1)[C@@H](O)C(=O)Nc1cccc(C(=O)C(F)(F)F)c1 | –
13 | 96 | 70 | CC(C)C[C@H](NC(=O)[C@@H](NC(=O)[C@@H](N)CNC(=O)c1nn[nH]n1)C(C)C)C(=O)N[C@@H](Cc1ccccc1)[C@@H](O)C(=O)Nc1cccc([N+](=O)[O-])c1 | –
14 | 99 | 84 | CC(C)C[C@H](NC(=O)[C@@H](NC(=O)[C@@H](N)CNC(=O)c1nn[nH]n1)C(C)C)C(=O)N[C@@H](Cc1ccccc1)[C@@H](O)C(=O)Nc1cc(Cl)cc(Cl)c1 | –
15 | 98 | 81 | CC(C)C[C@H](NC(=O)[C@@H](NC(=O)[C@@H](N)CNC(=O)c1nn[nH]n1)C(C)C)C(=O)N[C@@H](Cc1ccccc1)[C@@H](O)C(=O)NS(=O)(=O)C(F)(F)F | –
16 | 95 | 68 | CC(C)C[C@H](NC(=O)[C@@H](NC(=O)[C@@H](N)CNC(=O)c1nn[nH]n1)C(C)C)C(=O)N[C@@H](Cc1ccccc1)[C@@H](O)C(=O)Nc1cc(C(F)(F)F)cc(C(F)(F)F)c1 | –
17 | 80 | – | CC(C)C[C@H](NC(=O)[C@@H](NC(=O)[C@@H](N)CCC(=O)O)C(C)C)C(=O)N[C@@H](Cc1ccccc1)[C@@H](O)C(=O)Nc1cc(Cl)c(O)c(Cl)c1 | –
18 | 78 | – | CC(C)C[C@H](NC(=O)[C@@H](NC(=O)[C@@H](N)CCC(=O)O)C(C)C)C(=O)N[C@@H](Cc1ccccc1)[C@@H](O)C(=O)Nc1cc(Cl)cc(Cl)c1 | –
19 | 60 | – | CC(C)C[C@H](NC(=O)[C@@H](NC(=O)[C@@H](N)CCC(=O)O)C(C)C)C(=O)N[C@@H](Cc1ccccc1)[C@@H](O)C(=O)Nc1ccccc1O | –
20 | 60 | – | CC(C)C[C@H](NC(=O)[C@@H](NC(=O)[C@@H](N)CCC(=O)O)C(C)C)C(=O)N[C@@H](Cc1ccccc1)[C@@H](O)C(=O)Nc1cc([N+](=O)[O-])cc([N+](=O)[O-])c1 | –
21 | – | – | CC(C)C[C@H](NC(=O)[C@@H](NC(=O)[C@@H](N)CNC(=O)c1nnn[nH]1)C(C)C)C(=O)N[C@@H](Cc1ccccc1)[C@@H](O)C(=O)Nc1cc(Cl)cc(Cl)c1 | 14
